# Legend:
# [1] = test system: 231MFP breast cancer cells; test: Metabolomic profiling (SRM-based LC-MS/MS) in 231MFP cells; format: cell-based; conditions: 5 h
# Procedure: For polar metabolites, cell pellets were extracted in a mixture of acetonitrile/methanol/water (40:40:20), with inclusion of D3-15N-serine (10 nM) as an internal standard. Insoluble debris was separated via centrifugation at 13,000 rpm for 10 minutes. For nonpolar metabolites, metabolomes were extracted in 2:1 chloroform:methanol (3 ml) and PBS (1 ml) with inclusion of dodecylglycerol (10 nmol) and pentadecanoic acid (10 nmol) as internal standards. Organic and aqueous layers were separated by centrifugation at 1000×g for 5 minutes; the organic layer was collected, dried under a stream of nitrogen, and then dissolved in chloroform (120 μl). An aliquot of the nonpolar or polar extracts were then injected into an Agilent 6460 or 6430 QQQ-LC/MS/MS system. Separation of polar metabolites was achieved using normal-phase chromatography with a Luna NH2 column (5 mm) using a mobile phase (Buffer A: acetonitrile; Buffer B, 95:5 water/acetonitrile; with a modifier of 0.1% formic acid or 0.2% ammonium hydroxide) along with ammonium acetate (50 mM) for positive and negative ionization mode, respectively. The following gradient was used for each run: 0% B for 5 minutes (flow rate: 0.2 mL/min), 0% B to 100% B (linear) over 15 min (flow rate: 0.7 mL/min), then followed by an isocratic gradient of 100% B for 5 minutes (flow rate: 0.7 mL/min) and then 0% B for 5 minutes (flow rate of 0.7 mL/min). For nonpolar metabolites, metabolomes were separated using reverse-phase chromatography with a Luna C5 column (50 mm×4.6 mm with 5 μm diameter particles). Mobile phase A consisted of 95:5 ratio of water/methanol and mobile phase B consisted of 2-propanol, methanol, and water in a 60:35:5 ratio. Solvent modifiers of 0.1% formic acid, 5 mM ammonium formate, and 0.1% ammonium hydroxide were used to assist ion formation as well as to improve the LC resolution in both positive and negative ionization modes, respectively. The flow rate for each run started at 0.1 ml/min for 5 minutes to alleviate backpressure associated with injecting chloroform. The gradient started at 0% B and increased linearly to 100% B over the course of 45 min with a flow rate of 0.4 ml/min, followed by an isocratic gradient of 100% B for 17 minutes at 0.5 ml/min before equilibrating for 8 minutes at 0% B with a flow rate of 0.5 ml/min.
# MS analysis was performed with an electrospray ionization (ESI) source on an Agilent 6430 or 6460 QQQ LC-MS/MS system. The capillary voltage was set to 3.0 kV, and the fragmentor voltage was set to 100 V. The drying gas temperature was 350° C., the drying gas flow rate was 10 L/min, and the nebulizer pressure was 35 psi. […] Metabolite levels are expressed as relative abundances as compared to controls.
# [2] = test system: MCF 10A non-transformed mammary epithelial cells; test: MCF 10A cell proliferation (toxicity to non-transformed cells); format: cell-based; conditions: 48 h after treatment, Hoescht staining
# [3] = test system: 231MFP breast cancer cells; test: 231MFP serum-free cell survival (Hoechst staining); format: cell-based; conditions: 48 h
# [4] = biological target: T1, PP2A complex with wild-type PPP2R1A, PPP2R2A and PPP2CA (Homo sapiens, UniProt P30153); test: In vitro PP2A activity assay (phosphate release from phosphopeptide); format: biochemical; conditions: 30 min prior to assay
# T1 construct: PPP2CA protein TP301334) TP301334; host or cells: HEK293T
# Procedure: Wild-type mammalian expression plasmids with C-terminal FLAG tag were purchased from Origene (PPP2R1A: RC200056; PPP2R2A, MR207137). The PPP2R1A C337A mutant was generated with Agilent QuickChange Lightning site-directed mutagenesis kit according to manufacturer's instructions. […] Immediately prior to transfection, media was replaced with DMEM+5% FBS. Each plate was transfected with 20 μg of overexpression plasmid with 100 μg PEI (Sigma). After 48 hrs cells were collected in TBS, lysed by sonication, and batch bound with anti-DYKDDDDK (SEQ ID NO: 1) resin (GenScript) for 1 hr. Lysate and resin was loaded onto a gravity flow column and washed, followed by elution with 250 ng/uL 3×FLAG peptide (ApexBio A6001). Purity and concentration were verified by PAGE, UV/Spectroscopy, and BCA assay.
# Activity was assayed by addition of 60 μM Thr phosphopeptide (KRpTIRR, Millipore, 12-219) at 37° C. for 25 min, and free phosphate was detected colorimetrically by malachite green kit (Cayman 10009325) per manufacturer's instructions.
# [5] = In vivo tolerability during xenograft treatment; conditions: daily treatment for >30 days, 50 mg/kg ip
# pure human vimentin = biological target: T2, pure human vimentin (Homo sapiens, UniProt P08670); test: Gel-based ABPP, competition against IAyne labeling; format: binding; conditions: 10 μM, 30 min at 37° C.
# T2 construct: purchased Origene
# Procedure: (§1) Gel-based ABPP methods were performed using the methods described in “Chem Biol 22(10), 1394-1405 (2015)” by Medina-Cleghorn D., et al. Recombinant pure human proteins were purchased from Origene. Pure proteins were pre-treated with DMSO, Withaferin A, or acrylamide or chloroacetamide compounds (e.g., DKM 2-90 or JNS 1-40) for 30 minutes at 37° C. in an incubation volume of PBS (50 μL), and were subsequently treated with IAyne (10 μM final concentration) for 30 minutes at room temperature. CuAAC was performed to append rhodamine-azide onto IAyne probe-labeled proteins. The samples were separated by SDS/PAGE and scanned using a ChemiDoc MP. Inhibition of target labeling was assessed by densitometry using ImageStudio Light software.
# pure human KEAP1 = biological target: T3, pure human KEAP1 (Homo sapiens, UniProt Q14145); test: Gel-based ABPP, competition against IAyne labeling; format: binding; conditions: 10 μM, 30 min at 37° C.
# T3 construct: purchased Origene
# Procedure: as §1
# HCC38 cells = test: HCC38 serum-free cell survival; format: cell-based; conditions: 10 μM, 48 h
# T1 sequence (P30153 whole entry): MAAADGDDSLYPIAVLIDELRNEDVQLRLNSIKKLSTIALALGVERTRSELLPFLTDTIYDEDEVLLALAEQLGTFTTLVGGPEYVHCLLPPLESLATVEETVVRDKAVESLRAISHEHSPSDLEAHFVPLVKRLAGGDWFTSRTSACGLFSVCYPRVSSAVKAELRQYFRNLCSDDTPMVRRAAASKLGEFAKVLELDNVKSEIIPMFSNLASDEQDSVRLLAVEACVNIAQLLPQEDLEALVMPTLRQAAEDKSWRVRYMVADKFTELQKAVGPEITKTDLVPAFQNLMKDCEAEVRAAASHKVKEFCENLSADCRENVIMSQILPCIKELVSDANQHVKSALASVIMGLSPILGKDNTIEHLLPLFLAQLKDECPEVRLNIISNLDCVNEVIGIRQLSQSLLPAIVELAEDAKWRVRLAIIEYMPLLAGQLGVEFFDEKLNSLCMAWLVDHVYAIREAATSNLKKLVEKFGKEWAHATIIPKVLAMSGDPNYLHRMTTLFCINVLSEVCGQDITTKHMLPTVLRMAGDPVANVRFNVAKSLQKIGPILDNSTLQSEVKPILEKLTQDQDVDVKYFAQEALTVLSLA
# T1 sequence (Q6P1F6 whole entry partner): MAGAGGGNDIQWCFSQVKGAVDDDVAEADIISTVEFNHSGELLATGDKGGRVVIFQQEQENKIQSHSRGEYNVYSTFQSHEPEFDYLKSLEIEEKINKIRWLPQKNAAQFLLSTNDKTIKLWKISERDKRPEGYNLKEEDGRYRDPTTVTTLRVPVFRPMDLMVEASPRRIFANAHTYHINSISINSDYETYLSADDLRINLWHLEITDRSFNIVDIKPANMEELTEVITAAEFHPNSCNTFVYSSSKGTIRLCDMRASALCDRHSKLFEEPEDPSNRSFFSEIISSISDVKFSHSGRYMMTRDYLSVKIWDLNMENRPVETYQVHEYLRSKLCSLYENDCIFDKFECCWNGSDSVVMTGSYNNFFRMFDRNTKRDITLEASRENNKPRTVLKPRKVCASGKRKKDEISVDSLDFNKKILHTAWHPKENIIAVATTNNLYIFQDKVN
# T1 sequence (P67775 whole entry partner): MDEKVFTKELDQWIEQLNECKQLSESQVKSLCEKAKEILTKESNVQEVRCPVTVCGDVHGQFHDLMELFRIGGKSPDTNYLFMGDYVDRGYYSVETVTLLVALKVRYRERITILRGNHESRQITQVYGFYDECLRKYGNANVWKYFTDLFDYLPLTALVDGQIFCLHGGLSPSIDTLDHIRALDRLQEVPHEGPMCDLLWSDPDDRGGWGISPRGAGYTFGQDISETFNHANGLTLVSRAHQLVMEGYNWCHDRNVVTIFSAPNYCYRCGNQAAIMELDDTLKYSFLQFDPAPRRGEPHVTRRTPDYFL
# T2 sequence (P08670 whole entry): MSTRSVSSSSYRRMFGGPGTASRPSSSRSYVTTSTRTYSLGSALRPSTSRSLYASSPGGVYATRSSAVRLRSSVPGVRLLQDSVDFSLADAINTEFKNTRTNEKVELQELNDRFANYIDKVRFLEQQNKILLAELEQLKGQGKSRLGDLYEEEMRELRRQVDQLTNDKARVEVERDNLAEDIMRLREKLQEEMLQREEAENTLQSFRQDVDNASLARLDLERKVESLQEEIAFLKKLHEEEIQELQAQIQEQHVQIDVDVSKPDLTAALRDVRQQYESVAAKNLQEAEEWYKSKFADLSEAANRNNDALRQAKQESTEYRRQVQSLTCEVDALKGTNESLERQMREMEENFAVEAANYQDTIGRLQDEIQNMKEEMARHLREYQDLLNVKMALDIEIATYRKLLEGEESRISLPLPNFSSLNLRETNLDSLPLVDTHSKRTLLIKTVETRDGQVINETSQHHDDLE
# T3 sequence (Q14145 whole entry): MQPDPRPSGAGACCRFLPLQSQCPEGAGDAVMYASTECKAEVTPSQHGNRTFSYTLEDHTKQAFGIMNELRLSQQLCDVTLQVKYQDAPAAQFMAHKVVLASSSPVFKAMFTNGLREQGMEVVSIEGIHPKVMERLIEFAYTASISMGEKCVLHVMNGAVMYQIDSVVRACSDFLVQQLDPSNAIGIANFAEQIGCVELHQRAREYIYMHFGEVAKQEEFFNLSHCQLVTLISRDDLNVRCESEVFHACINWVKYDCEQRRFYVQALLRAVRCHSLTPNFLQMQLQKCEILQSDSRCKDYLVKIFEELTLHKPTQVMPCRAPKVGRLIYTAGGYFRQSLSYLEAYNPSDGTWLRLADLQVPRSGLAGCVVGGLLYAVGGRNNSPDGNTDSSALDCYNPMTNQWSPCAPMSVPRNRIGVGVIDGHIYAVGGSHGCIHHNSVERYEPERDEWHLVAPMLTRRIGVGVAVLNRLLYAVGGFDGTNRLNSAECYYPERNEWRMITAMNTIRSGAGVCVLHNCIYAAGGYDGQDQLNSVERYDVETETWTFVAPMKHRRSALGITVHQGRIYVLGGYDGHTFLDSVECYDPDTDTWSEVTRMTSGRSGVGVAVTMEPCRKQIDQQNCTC
smiles,measurement,setting,value
"O=C(CCl)Nc1ccc2c(c1)OCCO2 [DKM 2-90, 2-Chloro-N-(2,3-dihydrobenzo[β][1,4]dioxin-6-yl)acetamide]",ATP level,[1]; 100 μM,Reductions
same,LPA (lysophosphatidic acid) level,[1]; 100 μM,reductions
same,acetyl CoA level,[1]; 100 μM,reduced
same,lactic acid level,[1]; 100 μM,reduced
same,phosphoenolpyruvate level,[1]; 100 μM,reduced
same,phosphoglycerate level,[1]; 100 μM,reduced
same,toxicity to MCF 10A cells (cell proliferation),[2],less toxic than DKM 2-91
"O=C(CCl)N(Cc1ccccc1)c1ccc2c(c1)OCCO2 [JNS 1-40, N-benzyl-2-chloro-N-(2,3-dihydrobenzo[b][1,4]dioxin-6-yl)acetamide]",serum-free cell survival,[3]; 100 μM,impaired
same,"PP2A activity, wild-type PPP2R1A",[4]; 100 μM,activated PP2A activity
same,overt toxicity or body weight loss,[5],did not cause any overt toxicity or body weight loss
"CC1=C(CO)C(=O)O[C@@H]([C@@H](C)[C@H]2CC[C@H]3[C@@H]4C[C@H]5O[C@]56[C@@H](O)C=CC(=O)[C@]6(C)[C@H]4CC[C@]23C)C1 [withaferin A, reference compound]",serum-free cell survival,[3]; 10 μM,impairs
same,competition against IAyne labeling of pure human vimentin,pure human vimentin,lack of competition
same,competition against IAyne labeling of pure human KEAP1,pure human KEAP1,no competition
same,"PP2A activity, wild-type PPP2R1A",[4]; 10 μM,activated PP2A activity
same,serum-free cell survival,HCC38 cells,impairs
same,ATP level,[1]; 10 μM,Reductions
same,LPA (lysophosphatidic acid) level,[1]; 10 μM,reductions
same,acetyl CoA level,[1]; 10 μM,reduced
same,lactic acid level,[1]; 10 μM,reduced
same,phosphoenolpyruvate level,[1]; 10 μM,reduced
same,phosphoglycerate level,[1]; 10 μM,reduced
